Reference: patent publication US20130109580A1, “High-Affinity Peptide Probes for Tumor Biomarker, GRP-78, and Screening Method Thereof” (ATOMIC ENERGY CONCIL-INSTITUTE OF NUCLEAR ENERGY RESEARCH, priority 2011, published 2013)

What was measured:
GRP-78 [1] = target: T1, GRP-78 (Homo sapiens, UniProt P11021); assay: ELISA analysis of phage affinity to GRP-78; type: binding; conditions: Maxisorb 96-well plate coated with GRP-78; CPS minus background without GRP-78; serially diluted phages
Method: (g) In the end, enzyme-linked immunosorbent assay (ELISA) analysis is processed with the phages 11 to obtain high-affinity amino acid sequences of peptides.
In FIG. 2, after three times of the panning process, luminescent antibodies 12 (HRP-conjugated M13-phage g8p monoclone antibody) against the phages 11 are added to be washed with the TBST buffer having 0.5% Tween-20. At last, an enhanced chemiluminescence (ECL) substrate is added for developing.
Please further refer to FIG. 4 and FIG. 5, which are a view showing a calculating process and a result of an ELISA analysis. As shown in the figures, the four sequences selected from the five sequences are numbered as phage#01, phage#03, phage#13 and phage#15 for comparing their affinities to GRP-78. An ELISA analysis is processed after values of densities of the phages are deducted by background values at the same densities. In FIG. 3, Maxisorb 96-well plate is used. Row 11 and row 12 are not used. A1˜A10, C1˜C10, E1˜E10 and G1˜G10 are coated with GRP-78. 80 wells of A1˜A10, B1˜B10, C1˜C10, D1˜D10, E1˜E10, F1˜F10, G1˜G10, H1˜H10 and […] along with 40 clean wells are all blocked. On diluting the phages, the plate containing the 80 blocked wells along with the 40 blocked clean wells is used. The first to the tenth wells in each row contain phages sequentially diluted. […] A number of counts per second (CPS) is obtained by using an ELISA reader. […]

GRP-78 [2] = target: T1, GRP-78; assay: Phage display panning against GRP-78 with DNA sequencing of picked phages; type: binding; conditions: 24 independent phages picked after panning
Description: (a) A desired target protein 10 is fixed at bottom of a container added with selected phages 11 from phage display library.
(b) Each phage 11 is bound to the target protein 10 by using amino acid sequences contained in the phage 11.
(c) A TBST buffer having 0.1% Tween-20 is obtained for processing washing. By using Tween-20 as a surfactant, unspecific bindings are destroyed.
(d) The phages 11 which are bound to the target protein 10 are eluted under a weak acid status to be collected.
(e) after amplifying the collected phages 11 bound to the target protein 10, a panning process of binding, washing and eluting as in step (b) to step (d) is run for two times. For better screening efficiency, a density of Tween-20 is increased after each time of the panning process. It is because that the unspecific bindings are not destroyed with a too low density of Tween-20; yet a too high density of Tween-20 not only destroys the specific bindings between the phages 11 and the target protein 10 but also destroys integrities of proteins in the phages 11.
(f) Then, a quantification process is run with the screened phages 11 for estimating screening efficiency. DNA sequencing is then processed with the phages 11 to obtain actual sequences of 7 amino acids deposed on g3 protein (g3p). […]

T1 sequence (P11021 19-654, species assumed): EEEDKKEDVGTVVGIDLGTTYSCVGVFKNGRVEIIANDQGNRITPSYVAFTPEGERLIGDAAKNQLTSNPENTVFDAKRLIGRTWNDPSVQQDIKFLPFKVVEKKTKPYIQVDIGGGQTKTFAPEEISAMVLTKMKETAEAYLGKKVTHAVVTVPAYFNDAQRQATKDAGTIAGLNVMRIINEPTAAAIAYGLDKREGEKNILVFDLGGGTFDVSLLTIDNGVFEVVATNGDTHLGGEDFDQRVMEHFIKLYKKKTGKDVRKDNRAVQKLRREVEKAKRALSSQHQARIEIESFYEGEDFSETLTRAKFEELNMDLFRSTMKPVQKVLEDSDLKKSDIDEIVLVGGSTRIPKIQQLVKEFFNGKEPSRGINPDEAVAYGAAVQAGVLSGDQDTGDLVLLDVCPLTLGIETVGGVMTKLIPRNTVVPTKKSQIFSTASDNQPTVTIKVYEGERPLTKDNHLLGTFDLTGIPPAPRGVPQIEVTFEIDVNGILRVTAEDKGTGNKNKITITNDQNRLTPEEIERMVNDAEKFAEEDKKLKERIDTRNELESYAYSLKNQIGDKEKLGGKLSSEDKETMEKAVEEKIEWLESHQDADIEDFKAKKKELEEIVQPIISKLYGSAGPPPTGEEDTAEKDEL

Substance | affinity / binding force to GRP-78 (ELISA curve, pure CPS vs phage density) (GRP-78 [1]) | occurrence of the sequence among picked phages (GRP-78 [2])
KCCY | strong binding forces | 
KLWVIPQ [ruled out for later analysis] |  | very few occurrences
KVW | strong binding forces | 
YSLRMDF |  | very few occurrences
